Our source for the Dmax and DC50 values is US20260335299A1, “SUBSTITUTED OXOISOINDOLINYL PIPERIDINE-2,6-DIONE COMPOUND AS ANTICANCER AGENT” (BRISTOL-MYERS SQUIBB COMPANY, priority 2023, published 2026).

Where two headings read alike, the source gives them in different places.

Holding throughout (type): cell-based
The target in one assay is IKZF2 Helios (Homo sapiens, UniProt Q96SW2+Q9UKS7). Briefly: Human Regulatory T Cell Reprogramming Assay (Helios). Further details: Human CD4+ T cells were isolated from fresh healthy leukopaks; endogenous in cells; host or cells: FACS-sorted primary human regulatory T cells from healthy leukopaks. The procedure: (§1) Human CD4+ T cells were isolated from fresh healthy leukopaks (Stemcell Technologies) using the RosetteSep Human CD4+ T cell enrichment cocktail (Stemcell Technologies) and Ficoll density gradient centrifugation. Leukopaks were diluted with an equal volume of phosphate-buffered saline (PBS [Gibco]) supplemented with 2% fetal bovine serum (FBS, VWR Lifescience) and incubated with RosetteSep Human CD4^+ T cell enrichment cocktail for 20 minutes before layering on Ficoll-Paque Plus solution (GE Health Care). The cell-rich interface layer was harvested and washed twice with PBS supplemented with 2% FBS. Regulatory T cells were then isolated manually using the EasySep Human CD4^+CD1271WCD25^+ Regulatory T cell isolation kit (Stemcell Technologies) according to the manufacturer's instructions. Cells were rested overnight in Roswell Park Memorial Institute (RPMI) 1640 media (Gibco) supplemented with 10% FBS, Pen/Strep (Gibco), MEM-NEAA (Gibco), and sodium pyruvate (Gibco) in a humidified incubator (37° C., 5% CO2). Cells were then stained for CD4 (clone: RPA-T4, Biolegend), CD25 (clone: 2A3, BD Biosciences), and CD127 (clone: hIL-7R-M21, BD Biosciences). CD4+CD12710WCD25+ cells were sorted on a BD FACS Aria Fusion sorter to a purity of 95% or greater. Sorted cells were immediately used or cryopreserved for downstream assays.
Sequence of IKZF2 Helios (Q9UKS7 whole entry): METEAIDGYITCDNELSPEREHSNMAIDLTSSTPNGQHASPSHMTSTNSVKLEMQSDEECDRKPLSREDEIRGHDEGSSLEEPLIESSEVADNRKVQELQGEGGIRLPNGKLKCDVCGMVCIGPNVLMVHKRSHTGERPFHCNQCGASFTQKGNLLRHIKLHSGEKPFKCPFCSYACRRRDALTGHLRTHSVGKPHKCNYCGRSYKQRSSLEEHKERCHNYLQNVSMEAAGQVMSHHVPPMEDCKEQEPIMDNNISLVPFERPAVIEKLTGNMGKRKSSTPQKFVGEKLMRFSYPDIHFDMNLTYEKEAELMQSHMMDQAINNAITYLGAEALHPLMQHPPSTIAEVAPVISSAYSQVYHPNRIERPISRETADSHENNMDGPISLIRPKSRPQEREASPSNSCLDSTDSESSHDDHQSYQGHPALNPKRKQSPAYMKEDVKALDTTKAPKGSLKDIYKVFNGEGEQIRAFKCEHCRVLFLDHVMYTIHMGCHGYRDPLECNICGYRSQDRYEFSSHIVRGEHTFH
Sequence of IKZF2 Helios (Q96SW2 whole entry): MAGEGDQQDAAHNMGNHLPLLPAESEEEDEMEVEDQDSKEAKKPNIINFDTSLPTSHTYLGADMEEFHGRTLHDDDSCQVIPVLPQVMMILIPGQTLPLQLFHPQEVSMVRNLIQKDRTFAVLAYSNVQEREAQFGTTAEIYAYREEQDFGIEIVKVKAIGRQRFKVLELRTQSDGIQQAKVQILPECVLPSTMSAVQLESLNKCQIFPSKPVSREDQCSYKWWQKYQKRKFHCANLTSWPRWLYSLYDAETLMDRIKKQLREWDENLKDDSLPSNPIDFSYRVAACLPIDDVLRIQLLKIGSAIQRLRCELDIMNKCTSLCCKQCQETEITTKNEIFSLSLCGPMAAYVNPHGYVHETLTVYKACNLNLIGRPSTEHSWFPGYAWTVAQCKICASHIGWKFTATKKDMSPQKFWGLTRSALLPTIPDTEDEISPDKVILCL
Sequence of IKZF2 Helios (Q16531 whole entry partner): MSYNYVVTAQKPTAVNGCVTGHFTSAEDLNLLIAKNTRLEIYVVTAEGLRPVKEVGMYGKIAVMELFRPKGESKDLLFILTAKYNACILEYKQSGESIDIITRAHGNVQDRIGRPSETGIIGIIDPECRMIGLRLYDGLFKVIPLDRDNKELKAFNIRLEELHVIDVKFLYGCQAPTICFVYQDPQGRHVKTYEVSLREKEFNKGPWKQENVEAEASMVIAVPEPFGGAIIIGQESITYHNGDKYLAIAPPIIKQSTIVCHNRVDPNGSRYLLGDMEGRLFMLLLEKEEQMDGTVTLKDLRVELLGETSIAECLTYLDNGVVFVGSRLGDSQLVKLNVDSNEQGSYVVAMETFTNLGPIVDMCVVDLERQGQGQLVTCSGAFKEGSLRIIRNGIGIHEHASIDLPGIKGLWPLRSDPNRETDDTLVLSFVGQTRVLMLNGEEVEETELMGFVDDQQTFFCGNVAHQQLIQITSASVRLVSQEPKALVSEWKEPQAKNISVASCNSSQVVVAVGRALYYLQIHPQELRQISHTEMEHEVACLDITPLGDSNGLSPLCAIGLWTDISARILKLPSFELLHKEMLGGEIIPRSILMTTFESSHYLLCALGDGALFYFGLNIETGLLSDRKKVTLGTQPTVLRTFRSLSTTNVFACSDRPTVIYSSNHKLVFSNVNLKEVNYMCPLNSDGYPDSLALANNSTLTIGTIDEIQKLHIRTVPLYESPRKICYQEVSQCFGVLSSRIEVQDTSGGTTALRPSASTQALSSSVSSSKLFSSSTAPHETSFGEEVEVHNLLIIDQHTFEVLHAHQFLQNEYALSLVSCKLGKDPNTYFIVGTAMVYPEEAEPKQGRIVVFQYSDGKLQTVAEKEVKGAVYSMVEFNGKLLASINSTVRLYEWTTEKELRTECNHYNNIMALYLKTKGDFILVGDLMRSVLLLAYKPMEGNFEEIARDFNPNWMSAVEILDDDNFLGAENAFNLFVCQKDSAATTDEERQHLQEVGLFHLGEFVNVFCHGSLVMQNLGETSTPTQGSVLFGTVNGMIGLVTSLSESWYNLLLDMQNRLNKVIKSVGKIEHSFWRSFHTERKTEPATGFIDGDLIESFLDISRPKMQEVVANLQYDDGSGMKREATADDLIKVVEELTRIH
(§2) Fresh or cryopreserved FACS-sorted CD4+CD127^lowCD25^+ Treg cells were cultured at 25,000-50,000 cells/well of 96-well round bottom plates in RPMI 1640 media (Gibco) supplemented with 10% FBS, Pen/Strep (Gibco), MEM-NEAA (Gibco), and sodium pyruvate (Gibco). Cells were stimulated with Treg Xpander beads (Thermo Fisher) at cells-to-beads ratio of 1:4 in the presence of 500 U/mL recombinant human IL-2 (Proleukin). Compounds were added at titrated doses and cells were incubated at 37° C., 5% CO2 for 12-13 days. Recombinant human IL-2 and compound were replenished every 2-3 days during the entire culture duration. On day 12 or 13, cells were restimulated with phorbol 12-myristate 13-acetate (PMA) and ionomycin in the presence of the protein transport inhibitors brefeldin A and monensin (eBioscience Cell Stimulation Cocktail plus protein transport inhibitors, 500×, Catalog number 00-4975-93) before proceeding with flow cytometry staining and analysis.
(§3) For flow cytometry staining, cells were washed twice with flow cytometry staining buffer (Thermo Fisher) and incubated in Human Tru-stain Fc block (Biolegend) for 10 minutes before adding eFluor780 viability dye (Thermo Fisher) and surface marker antibody cocktail for 30 minutes at 4° C. […] Data were analyzed using FlowJo version 10 and GraphPad Prism Software.
(§4) Table C-1 lists the maximum observed degradation of the IKZF2 protein and IKZF4 protein as measured in the Human Regulatory T Cell Reprogramming assay. […]

In another assay the target is IKZF3 Aiolos (Homo sapiens, UniProt Q96SW2+Q9UKT9). Briefly: Jurkat Cellular Degradation Assay (Aiolos). Set-up: endogenous in cells; host or cells: Jurkat cells. As to conditions: Jurkat cells, 72 h. As to the method:
(§5) Jurkat cells were plated at 80,000 cells/well in 40 μL RPMI+10% FBS in a 384-well cell culture plate prior to using acoustic dispensing technology for adding a compound of interest. Cell cultures were incubated for 72 h at 37° C. and 5% CO2. In order to facilitate analysis, cell cultures were spun down at 200 rpm for 5 min and the supernatant was discarded. After shaking the plate to dislodge the cell pellet, cells were resuspended in 50 μL of Fixation Buffer (eBioscience FoxP3 buffer set 00-5523-00) for 60 min at room temperature. After centrifuging and discarding the supernatant, cells were permeabilized with 50 μL of Permeabilization buffer (eBioscience FoxP3 buffer set 00-5523-00) for 10 min at room temperature. Following permeabilization, cells were spun down and the supernatant was replaced with 20 μL fluorescently labelled antibodies against Helios, Ikaros and Aiolos or corresponding Isotype controls in 1× Permeabilization buffer (Ikaros-Alexa488 [Biolegend, Cat #368408, 1:50], Helios-PE [CST, Cat #29360, 1:50], Aiolos-Alexa647 [Biolegend, Cat #371106 Biolegend, 1:25]) and staining reactions were incubated for 1 h at room temperature while protected from light. Subsequently, 30 μL of 1× Permeabilization buffer was added prior to centrifuging the cells and discarding the supernatant. Stained cells were resuspended in 25 μL of flow cytometry staining buffer [PBS+0.2% bovine serum albumin (BSA)] and analyzed using an Intellicyt Ique Plus flow cytometer.
(§6) Table A-1 lists the maximum observed degradation of the IKZF1 protein, IKZF2 protein, and IKZF3 protein as measured in the Jurkat Cellular Degradation assay. The results in Table A-I were rounded to two digits. In the Jurkat Cellular Degradation assay, a value of 100% indicated no detectable protein remaining or complete degradation of the protein; and a value of 0% indicated no detectable degradation of the protein by the test compound.

Another assay concerns the target T1, IKZF4 Eos (Homo sapiens, UniProt Q96SW2+Q9H2S9).
T1 construct: Human CD4+ T cells were isolated from fresh healthy leukopaks; endogenous in cells; host or cells: FACS-sorted primary human regulatory T cells from healthy leukopaks
Briefly: Human Regulatory T Cell Reprogramming Assay (Eos). The procedure: as §1, §2, §3, §4

For a further assay, the target named is IKZF1 Ikaros (Homo sapiens, UniProt Q13422+Q96SW2). Briefly: Jurkat Cellular Degradation Assay (Ikaros). Set-up: endogenous in cells; host or cells: Jurkat cells. As to conditions: Jurkat cells, 72 h. As to the method:
as §5, §6

The mark [1] stands for this setting: human Treg cells, stimulated, 12-13 days, concentration reducing protein level by 50% compared to DMSO alone.
Where [2] appears, read: concentration reducing protein level by 50% compared to DMSO alone.

T1 sequence (Q9H2S9 whole entry): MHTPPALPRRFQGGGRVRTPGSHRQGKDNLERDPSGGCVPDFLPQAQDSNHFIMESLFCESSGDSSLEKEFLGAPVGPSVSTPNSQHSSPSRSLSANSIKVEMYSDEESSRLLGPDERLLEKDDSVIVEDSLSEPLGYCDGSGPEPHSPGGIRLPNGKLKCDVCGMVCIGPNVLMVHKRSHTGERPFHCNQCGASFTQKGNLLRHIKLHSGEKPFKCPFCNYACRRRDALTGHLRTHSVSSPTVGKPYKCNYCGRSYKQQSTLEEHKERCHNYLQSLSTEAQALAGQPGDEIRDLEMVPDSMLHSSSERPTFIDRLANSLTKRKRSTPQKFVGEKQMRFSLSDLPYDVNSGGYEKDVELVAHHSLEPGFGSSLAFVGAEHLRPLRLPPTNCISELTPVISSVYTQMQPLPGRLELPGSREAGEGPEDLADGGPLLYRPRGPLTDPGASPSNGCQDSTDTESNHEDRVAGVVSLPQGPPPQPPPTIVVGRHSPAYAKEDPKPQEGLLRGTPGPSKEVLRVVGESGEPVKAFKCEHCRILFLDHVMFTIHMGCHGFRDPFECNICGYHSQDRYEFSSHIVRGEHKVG
T1 sequence (Q96SW2 whole entry): as the sequence (Q96SW2 whole entry) above
T1 sequence (Q16531 whole entry partner): as the sequence (Q16531 whole entry partner) above
Sequence of IKZF3 Aiolos (Q9UKT9 whole entry): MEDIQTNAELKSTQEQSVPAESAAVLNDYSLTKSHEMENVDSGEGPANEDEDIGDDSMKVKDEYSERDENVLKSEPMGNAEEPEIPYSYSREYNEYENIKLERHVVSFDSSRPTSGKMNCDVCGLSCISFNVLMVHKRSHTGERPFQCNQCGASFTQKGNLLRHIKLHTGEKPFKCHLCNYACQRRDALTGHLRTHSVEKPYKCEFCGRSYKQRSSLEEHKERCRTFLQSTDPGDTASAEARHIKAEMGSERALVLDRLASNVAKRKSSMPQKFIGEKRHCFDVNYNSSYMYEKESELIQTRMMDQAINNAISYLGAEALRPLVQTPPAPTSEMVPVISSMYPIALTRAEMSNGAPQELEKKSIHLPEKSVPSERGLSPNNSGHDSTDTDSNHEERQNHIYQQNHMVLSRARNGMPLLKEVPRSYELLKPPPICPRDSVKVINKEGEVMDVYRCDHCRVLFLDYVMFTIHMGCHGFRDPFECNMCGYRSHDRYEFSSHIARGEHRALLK
Sequence of IKZF3 Aiolos (Q96SW2 whole entry): as the sequence (Q96SW2 whole entry) above
Sequence of IKZF3 Aiolos (Q16531 whole entry partner): as the sequence (Q16531 whole entry partner) above
Sequence of IKZF1 Ikaros (Q13422 whole entry): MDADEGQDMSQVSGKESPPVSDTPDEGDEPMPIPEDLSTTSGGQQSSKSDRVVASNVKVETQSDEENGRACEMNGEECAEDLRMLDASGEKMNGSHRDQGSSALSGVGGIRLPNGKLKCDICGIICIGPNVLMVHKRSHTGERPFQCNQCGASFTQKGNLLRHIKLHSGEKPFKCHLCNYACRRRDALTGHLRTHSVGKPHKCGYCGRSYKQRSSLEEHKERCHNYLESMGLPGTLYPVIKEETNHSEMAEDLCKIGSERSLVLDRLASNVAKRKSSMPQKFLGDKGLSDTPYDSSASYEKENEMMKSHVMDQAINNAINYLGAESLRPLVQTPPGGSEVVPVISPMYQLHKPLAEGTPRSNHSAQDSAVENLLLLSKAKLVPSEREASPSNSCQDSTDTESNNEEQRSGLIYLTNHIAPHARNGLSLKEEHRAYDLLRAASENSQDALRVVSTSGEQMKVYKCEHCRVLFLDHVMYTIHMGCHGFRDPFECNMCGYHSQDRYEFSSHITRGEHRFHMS
Sequence of IKZF1 Ikaros (Q96SW2 whole entry): as the sequence (Q96SW2 whole entry) above
Sequence of IKZF1 Ikaros (Q16531 whole entry partner): as the sequence (Q16531 whole entry partner) above

Take `Nc1nc(-c2ccc3c(c2F)CN(C2CCC(=O)NC2=O)C3=O)ccc1CN1CC(C2CCC(F)(F)CC2)C1` (stereo not drawn) [Example 1, 3-(5-(6-Amino-5-((3-(4,4-difluorocyclohexyl)azetidin-1-yl)methyl)pyridin-2-yl)-4-fluoro-1-oxoisoindolin-2-yl) piperidine-2,6-dione]: the Dmax was no less than 81% at IKZF2 Helios (Regulatory T cell, human, text summary of Table C-1, read-out: decreased the level of the IKZF2 (Helios) protein); 81 to 86% at IKZF2 Helios (Regulatory T cell, human Treg cells, stimulated, 12-13 days, read-out: IKZF2 Helios Maximum Observed Degradation); 81 to 86% on IKZF2 Helios (summary table, Human T Regulatory Cell Reprogramming Assay (Table C-1), read-out: IKZF2 Helios max % deg. observed (Table E)); 48% on IKZF3 Aiolos (human, read-out: IKZF3 Aiolos max % deg. observed); no less than 71% on IKZF4 Eos (Regulatory T cell, human, text summary of Table C-1, read-out: decreased the level of IKZF4 (Eos)); 71 to 72% on IKZF4 Eos (Regulatory T cell, human Treg cells, stimulated, 12-13 days, read-out: IKZF4 Eos Maximum Observed Degradation). The Dmax on IKZF4 Eos (summary table, Human T Regulatory Cell Reprogramming Assay (Table C-1), read-out: IKZF4 Eos max % deg. observed (Table E)) is 71 to 72%; on IKZF1 Ikaros (human, read-out: IKZF1 Ikaros max % deg. observed), 69%. The DC50 is 36 to 172 nM on IKZF2 Helios (setting [1]), greater than 10000 nM at IKZF3 Aiolos (setting [2]), 1.3 to 1.6 nM at IKZF4 Eos (setting [1]) and 90.9 nM at IKZF1 Ikaros (setting [2]).
